Results: ChEMBL document CHEMBL1142900, “Biological profile of new apoptotic agents based on 2,4-pyrido[2,3-d]pyrimidine derivatives” (Bioorg Med Chem, 2007)
Values belong to the compound of their own block, whether it stands above or below them. Activity calls are given as the source filed them. No cut-off for these calls is given here.

Tests used:
HT-29 [1] = test: Growth inhibition of human HT29 cells by neutral red assay; format: functional, cell-based
T-24 [2] = test: Growth inhibition of human T24 cells by neutral red assay; format: functional, cell-based
[3] = Growth inhibition of human HTB26 cells by neutral red assay; format: functional, cell-based
T-24 [4] = test: Effect on apoptosis in T24 cells assessed as increase in caspase 3 activation after 14 hrs relative to control by flow cytometry; format: functional, cell-based; conditions: Homo sapiens
T-24 [5] = test: Effect on apoptosis in T24 cells assessed as increase in caspase 3 activation after 24 hrs relative to control by flow cytometry; format: functional, cell-based; conditions: Homo sapiens
T-24 [6] = test: Effect on apoptosis in T24 cells assessed as increase in caspase 3 activation after 48 hrs relative to control by flow cytometry; format: functional, cell-based; conditions: Homo sapiens
HT-29 [7] = test: Effect on apoptosis in HT29 cells assessed as increase in caspase 3 activation after 14 hrs relative to control by flow cytometry; format: functional, cell-based; conditions: Homo sapiens
HT-29 [8] = test: Effect on apoptosis in HT29 cells assessed as increase in caspase 3 activation after 24 hrs relative to control by flow cytometry; format: functional, cell-based; conditions: Homo sapiens
HT-29 [9] = test: Effect on apoptosis in HT29 cells assessed as increase in caspase 3 activation after 48 hrs relative to control by flow cytometry; format: functional, cell-based; conditions: Homo sapiens
Caspase-3 (Homo sapiens) [10] = molecular target: T1, Caspase-3 (Homo sapiens) (UniProt P42574); test: Effect on MDA-MB-231 cell lysate caspase 3 activity after 14 hrs relative to control by substrate assay; format: cell-based
T1 sequence (whole entry): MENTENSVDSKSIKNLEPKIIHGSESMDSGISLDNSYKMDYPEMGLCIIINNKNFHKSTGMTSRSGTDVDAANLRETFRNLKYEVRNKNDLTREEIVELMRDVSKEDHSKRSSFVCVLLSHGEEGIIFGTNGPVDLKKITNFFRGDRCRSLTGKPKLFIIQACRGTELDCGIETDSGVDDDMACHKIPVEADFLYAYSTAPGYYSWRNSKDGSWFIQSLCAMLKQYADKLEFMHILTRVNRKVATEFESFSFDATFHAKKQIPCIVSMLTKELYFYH

Caspase-3 (Homo sapiens) [11] = molecular target: T1, Caspase-3 (Homo sapiens); test: Effect on MDA-MB-231 cell lysate caspase 3 activity after 24 hrs relative to control by substrate assay; format: cell-based
Caspase-3 (Homo sapiens) [12] = molecular target: T1, Caspase-3 (Homo sapiens); test: Effect on MDA-MB-231 cell lysate caspase 3 activity after 48 hrs relative to control by substrate assay; format: cell-based
MDA-MB-231 [13] = test: Increase in cell death of MDA-MB-231 cells; format: functional, cell-based; conditions: Homo sapiens, TDE = time-dependent effect
T-24 [14] = test: Increase in cell death of T24 cells; format: functional, cell-based; conditions: Homo sapiens, TDE = time-dependent effect
HT-29 [15] = test: Increase in cell death of HT29 cells; format: functional, cell-based; conditions: Homo sapiens, TDE = time-dependent effect
[16] = Cytotoxicity against CRL8799 cells; format: cell-based; conditions: human
[17] = Cytotoxicity against CRL11233 cells; format: cell-based; conditions: human
HT-29 [18] = test: Cell cycle arrest in HT29 cells by accumulation at G1 phase at 8.9 uM after 8 hrs; format: functional, Homo sapiens
HT-29 [19] = test: Cell cycle arrest in HT29 cells by accumulation at G1 phase at 8.9 uM after 10 hrs; format: functional, Homo sapiens
HT-29 [20] = test: Cell cycle arrest in HT29 cells by accumulation at G1 phase at 8.9 uM after 12 hrs; format: functional, Homo sapiens
HT-29 [21] = test: Cell cycle arrest in HT29 cells by accumulation at S phase at 8.9 uM after 8 hrs; format: functional, Homo sapiens
HT-29 [22] = test: Cell cycle arrest in HT29 cells by accumulation at S phase at 8.9 uM after 10 hrs; format: functional, Homo sapiens
HT-29 [23] = test: Cell cycle arrest in HT29 cells by accumulation at S phase at 8.9 uM after 12 hrs; format: functional, Homo sapiens
HT-29 [24] = test: Cell cycle arrest in HT29 cells by accumulation at G2 phase at 8.9 uM after 8 hrs; format: functional, Homo sapiens
HT-29 [25] = test: Cell cycle arrest in HT29 cells by accumulation at G2 phase at 8.9 uM after 10 hrs; format: functional, Homo sapiens
HT-29 [26] = test: Cell cycle arrest in HT29 cells by accumulation at G2 phase at 8.9 uM after 12 hrs; format: functional, Homo sapiens
HT-29 [27] = test: Cell cycle arrest in HT29 cells by accumulation at subG1 phase at 8.9 uM after 8 hrs; format: functional, Homo sapiens
HT-29 [28] = test: Cell cycle arrest in HT29 cells by accumulation at subG1 phase at 8.9 uM after 10 hrs; format: functional, Homo sapiens
HT-29 [29] = test: Cell cycle arrest in HT29 cells by accumulation at subG1 phase at 8.9 uM after 12 hrs; format: functional, Homo sapiens
T-24 [30] = test: Cell cycle arrest in T24 cells by accumulation at G1 phase at 5 uM after 8 hrs; format: functional, Homo sapiens
T-24 [31] = test: Cell cycle arrest in T24 cells by accumulation at G1 phase at 5 uM after 10 hrs; format: functional, Homo sapiens
T-24 [32] = test: Cell cycle arrest in T24 cells by accumulation at G1 phase at 5 uM after 12 hrs; format: functional, Homo sapiens
T-24 [33] = test: Cell cycle arrest in T24 cells by accumulation at S phase at 5 uM after 8 hrs; format: functional, Homo sapiens
T-24 [34] = test: Cell cycle arrest in T24 cells by accumulation at S phase at 5 uM after 10 hrs; format: functional, Homo sapiens
T-24 [35] = test: Cell cycle arrest in T24 cells by accumulation at S phase at 5 uM after 12 hrs; format: functional, Homo sapiens
T-24 [36] = test: Cell cycle arrest in T24 cells by accumulation at G2 phase at 5 uM after 8 hrs; format: functional, Homo sapiens
T-24 [37] = test: Cell cycle arrest in T24 cells by accumulation at G2 phase at 5 uM after 10 hrs; format: functional, Homo sapiens
T-24 [38] = test: Cell cycle arrest in T24 cells by accumulation at G2 phase at 5 uM after 12 hrs; format: functional, Homo sapiens
T-24 [39] = test: Cell cycle arrest in T24 cells by accumulation at subG1 phase at 5 uM after 8 hrs; format: functional, Homo sapiens
T-24 [40] = test: Cell cycle arrest in T24 cells by accumulation at subG1 phase at 5 uM after 10 hrs; format: functional, Homo sapiens
T-24 [41] = test: Cell cycle arrest in T24 cells by accumulation at subG1 phase at 5 uM after 12 hrs; format: functional, Homo sapiens
HT-29 [42] = test: Cell cycle arrest in HT29 cells by accumulation at G1 phase after 24 hrs; format: functional, Homo sapiens
HT-29 [43] = test: Cell cycle arrest in HT29 cells by accumulation at S phase after 24 hrs; format: functional, Homo sapiens
HT-29 [44] = test: Cell cycle arrest in HT29 cells by accumulation at G2/M phase after 24 hrs at 0.89 uM; format: functional, Homo sapiens
HT-29 [45] = test: Cell cycle arrest in HT29 cells by accumulation at subG1 phase after 24 hrs; format: functional, Homo sapiens
T-24 [46] = test: Cell cycle arrest in T24 cells by accumulation at G1 phase after 24 hrs; format: functional, Homo sapiens
T-24 [47] = test: Cell cycle arrest in T24 cells by accumulation at S phase after 24 hrs; format: functional, Homo sapiens
T-24 [48] = test: Cell cycle arrest in T24 cells by accumulation at G2/M phase after 24 hrs at 0.6 uM; format: functional, Homo sapiens
T-24 [49] = test: Cell cycle arrest in T24 cells by accumulation at subG1 phase after 24 hrs; format: functional, Homo sapiens
HT-29 [50] = test: Effect on apoptosis in HT29 cells assessed as DNA fragmentation after 8 hrs; format: functional, cell-based; conditions: Homo sapiens
T-24 [51] = test: Effect on apoptosis in T24 cells assessed as DNA fragmentation after 8 hrs; format: functional, cell-based; conditions: Homo sapiens
MDA-MB-231 [52] = test: Growth inhibition of human MDA-MB-231 cells by neutral red assay; format: functional, cell-based

IC50 (HT-29 [1]): 8900 nM | Activity (Caspase-3 (Homo sapiens) [10]): inactive | Activity (Caspase-3 (Homo sapiens) [11]): inactive | Activity (Caspase-3 (Homo sapiens) [12]): inactive
SMILES: COc1ccc(CNc2nc(NCc3ccc(OC)cc3)c3cccnc3n2)cc1
IC50 (T-24 [2]): 5000 nM | IC50 [3]: 1500 nM | Activity (T-24 [4]): Active | Activity (T-24 [5]): Active | Activity (T-24 [6]): Active | Activity (HT-29 [7]): Active | Activity (HT-29 [8]): Active | Activity (HT-29 [9]): Active | Activity (MDA-MB-231 [13]): tde | Activity (T-24 [14]): tde | Activity (HT-29 [15]): tde | Activity [16]: Non-toxic | Activity [17]: Non-toxic | Activity (HT-29 [18]): 35% | Activity (HT-29 [19]): 22% | Activity (HT-29 [20]): 17% | Activity (HT-29 [21]): 19% | Activity (HT-29 [22]): 17% | Activity (HT-29 [23]): 17% | Activity (HT-29 [24]): 38% | Activity (HT-29 [25]): 36% | Activity (HT-29 [26]): 33% | Activity (HT-29 [27]): 8% | Activity (HT-29 [28]): 25% | Activity (HT-29 [29]): 34% | Activity (T-24 [30]): 36% | Activity (T-24 [31]): 28% | Activity (T-24 [32]): 26% | Activity (T-24 [33]): 13% | Activity (T-24 [34]): 13% | Activity (T-24 [35]): 10% | Activity (T-24 [36]): 43% | Activity (T-24 [37]): 40% | Activity (T-24 [38]): 36% | Activity (T-24 [39]): 7% | Activity (T-24 [40]): 18% | Activity (T-24 [41]): 28% | Activity (HT-29 [42]): 30% | Activity (HT-29 [43]): 11% | Activity (HT-29 [44]): 52% | Activity (HT-29 [45]): 7% | Activity (T-24 [46]): 42% | Activity (T-24 [47]): 13% | Activity (T-24 [48]): 38% | Activity (T-24 [49]): 6% | Activity (HT-29 [50]): Active | Activity (T-24 [51]): Active

SMILES: CCC1(O)C(=O)OCc2c1cc1n(c2=O)Cc2cc3ccccc3nc2-1 (single isomer, unassigned) [CAMPTOTHECIN]
IC50 (HT-29 [1]): 14 nM | IC50 (T-24 [2]): 6 nM | IC50 (MDA-MB-231 [52]): 291 nM
